#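 At the GI50, growth is halved. TGI: total growth inhibition.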
# What was measured:
# Experiment in all cases: inhibition of tumour cell growth, NCI panel, 384-well format
# HS 578T breast = tested on: HS 578T breast
# SF-295 CNS = tested on: SF-295 CNS
# UACC-62 melanoma = tested on: UACC-62 melanoma
# TK-10 renal = tested on: TK-10 renal
# SNB-19 CNS = tested on: SNB-19 CNS
# KM12 colon = tested on: KM12 colon
# HL-60(TB) leukemia = tested on: HL-60(TB) leukemia
# SW-620 colon = tested on: SW-620 colon
# U251 glioblastoma = tested on: U251 glioblastoma
# A549 NSCLC = tested on: A549 NSCLC
# SK-MEL-28 melanoma = tested on: SK-MEL-28 melanoma
# HOP-62 NSCLC = tested on: HOP-62 NSCLC
# SF-268 CNS = tested on: SF-268 CNS
# MCF7 breast = tested on: MCF7 breast
# MDA-MB-468 breast = tested on: MDA-MB-468 breast
# HOP-92 NSCLC = tested on: HOP-92 NSCLC
# NCI/ADR-RES ovarian = tested on: NCI/ADR-RES ovarian
# SF-539 CNS = tested on: SF-539 CNS
# IGROV1 ovarian = tested on: IGROV1 ovarian
# NCI-H23 lung = tested on: NCI-H23 lung
# ACHN renal = tested on: ACHN renal
# SK-MEL-5 melanoma = tested on: SK-MEL-5 melanoma
# CCRF-CEM leukemia = tested on: CCRF-CEM leukemia
# DU-145 prostate = tested on: DU-145 prostate
# HCC-2998 colon = tested on: HCC-2998 colon
# OVCAR-3 ovarian = tested on: OVCAR-3 ovarian
# SR leukemia = tested on: SR leukemia
# SNB-75 CNS = tested on: SNB-75 CNS
# CAKI-1 renal = tested on: CAKI-1 renal
# OVCAR-5 ovarian = tested on: OVCAR-5 ovarian
# RXF 393 renal = tested on: RXF 393 renal
# UACC-257 melanoma = tested on: UACC-257 melanoma
# SK-OV-3 ovarian = tested on: SK-OV-3 ovarian
# MALME-3M melanoma = tested on: MALME-3M melanoma
# A498 renal = tested on: A498 renal
# EKVX NSCLC = tested on: EKVX NSCLC
# 786-0 renal = tested on: 786-0 renal
# MOLT-4 leukemia = tested on: MOLT-4 leukemia
# BT-549 breast = tested on: BT-549 breast
# SN12C renal = tested on: SN12C renal
# RPMI-8226 leukemia = tested on: RPMI-8226 leukemia
# HT29 colon = tested on: HT29 colon
# NCI-H522 lung = tested on: NCI-H522 lung
# NCI-H226 lung = tested on: NCI-H226 lung
# OVCAR-4 ovarian = tested on: OVCAR-4 ovarian
# SK-MEL-2 melanoma = tested on: SK-MEL-2 melanoma
# HCT-15 colon = tested on: HCT-15 colon
# MDA-MB-231 breast = tested on: MDA-MB-231 breast
# MDA-MB-435 melanoma = tested on: MDA-MB-435 melanoma
# M14 melanoma = tested on: M14 melanoma
# T-47D breast = tested on: T-47D breast
# OVCAR-8 ovarian = tested on: OVCAR-8 ovarian
# COLO 205 colon = tested on: COLO 205 colon
# NCI-H460 NSCLC = tested on: NCI-H460 NSCLC
# PC-3 prostate = tested on: PC-3 prostate
# NCI-H322M lung = tested on: NCI-H322M lung
compound,measurement,setting,value
Nc1ccn([C@H]2C[C@@H](O)[C@@H](CO)S2)c(=O)n1,GI50,HS 578T breast,> 100 µM
same,TGI,HS 578T breast,> 100 µM
same,GI50,SF-295 CNS,> 100 µM
same,TGI,SF-295 CNS,> 100 µM
same,GI50,UACC-62 melanoma,> 100 µM
same,TGI,UACC-62 melanoma,> 100 µM
same,GI50,TK-10 renal,> 100 µM
same,TGI,TK-10 renal,> 100 µM
same,GI50,SNB-19 CNS,4.99 µM
same,TGI,SNB-19 CNS,> 100 µM
same,GI50,KM12 colon,9.08 µM
same,TGI,KM12 colon,> 100 µM
same,GI50,HL-60(TB) leukemia,0.306 µM
same,TGI,HL-60(TB) leukemia,1.26 µM
same,GI50,SW-620 colon,> 100 µM
same,TGI,SW-620 colon,> 100 µM
same,GI50,U251 glioblastoma,> 100 µM
same,TGI,U251 glioblastoma,> 100 µM
same,GI50,A549 NSCLC,> 100 µM
same,TGI,A549 NSCLC,> 100 µM
same,GI50,SK-MEL-28 melanoma,> 100 µM
same,TGI,SK-MEL-28 melanoma,> 100 µM
same,GI50,HOP-62 NSCLC,21.8 µM
same,TGI,HOP-62 NSCLC,> 100 µM
same,GI50,SF-268 CNS,54.4 µM
same,TGI,SF-268 CNS,> 100 µM
same,GI50,MCF7 breast,> 100 µM
same,TGI,MCF7 breast,> 100 µM
same,GI50,MDA-MB-468 breast,> 100 µM
same,TGI,MDA-MB-468 breast,> 100 µM
same,GI50,HOP-92 NSCLC,2.35 µM
same,TGI,HOP-92 NSCLC,> 100 µM
same,GI50,NCI/ADR-RES ovarian,1.38 µM
same,TGI,NCI/ADR-RES ovarian,> 100 µM
same,GI50,SF-539 CNS,> 100 µM
same,TGI,SF-539 CNS,> 100 µM
same,GI50,IGROV1 ovarian,> 100 µM
same,TGI,IGROV1 ovarian,> 100 µM
same,GI50,NCI-H23 lung,> 100 µM
same,TGI,NCI-H23 lung,> 100 µM
same,GI50,ACHN renal,> 100 µM
same,TGI,ACHN renal,> 100 µM
same,GI50,SK-MEL-5 melanoma,0.804 µM
same,TGI,SK-MEL-5 melanoma,> 100 µM
same,GI50,CCRF-CEM leukemia,0.0552 µM
same,TGI,CCRF-CEM leukemia,0.862 µM
same,GI50,DU-145 prostate,20.2 µM
same,TGI,DU-145 prostate,> 100 µM
same,GI50,HCC-2998 colon,4.98 µM
same,TGI,HCC-2998 colon,> 100 µM
same,GI50,OVCAR-3 ovarian,3.29 µM
same,TGI,OVCAR-3 ovarian,> 100 µM
same,GI50,SR leukemia,2.5 µM
same,TGI,SR leukemia,15.8 µM
same,GI50,SNB-75 CNS,> 100 µM
same,TGI,SNB-75 CNS,> 100 µM
same,GI50,CAKI-1 renal,> 100 µM
same,TGI,CAKI-1 renal,> 100 µM
same,GI50,OVCAR-5 ovarian,> 100 µM
same,TGI,OVCAR-5 ovarian,> 100 µM
same,GI50,RXF 393 renal,6.98 µM
same,TGI,RXF 393 renal,> 100 µM
same,GI50,UACC-257 melanoma,> 100 µM
same,TGI,UACC-257 melanoma,> 100 µM
same,GI50,SK-OV-3 ovarian,> 100 µM
same,TGI,SK-OV-3 ovarian,> 100 µM
same,GI50,MALME-3M melanoma,> 100 µM
same,TGI,MALME-3M melanoma,> 100 µM
same,GI50,A498 renal,> 100 µM
same,TGI,A498 renal,> 100 µM
same,GI50,EKVX NSCLC,> 100 µM
same,TGI,EKVX NSCLC,> 100 µM
same,GI50,786-0 renal,54.1 µM
same,TGI,786-0 renal,> 100 µM
same,TGI,MOLT-4 leukemia,0.0271 µM
same,GI50,BT-549 breast,0.896 µM
same,TGI,BT-549 breast,26.3 µM
same,GI50,SN12C renal,11.6 µM
same,TGI,SN12C renal,> 100 µM
same,GI50,RPMI-8226 leukemia,0.368 µM
same,TGI,RPMI-8226 leukemia,1.59 µM
same,GI50,HT29 colon,> 100 µM
same,TGI,HT29 colon,> 100 µM
same,GI50,NCI-H522 lung,0.113 µM
same,TGI,NCI-H522 lung,1.15 µM
same,GI50,NCI-H226 lung,96.9 µM
same,TGI,NCI-H226 lung,> 100 µM
same,GI50,OVCAR-4 ovarian,> 100 µM
same,TGI,OVCAR-4 ovarian,> 100 µM
same,GI50,SK-MEL-2 melanoma,> 100 µM
same,TGI,SK-MEL-2 melanoma,> 100 µM
same,GI50,HCT-15 colon,1.71 µM
same,TGI,HCT-15 colon,> 100 µM
same,GI50,MDA-MB-231 breast,2.95 µM
same,TGI,MDA-MB-231 breast,> 100 µM
same,GI50,MDA-MB-435 melanoma,> 100 µM
same,TGI,MDA-MB-435 melanoma,> 100 µM
same,GI50,M14 melanoma,> 100 µM
same,TGI,M14 melanoma,> 100 µM
same,GI50,T-47D breast,> 100 µM
same,TGI,T-47D breast,> 100 µM
same,GI50,OVCAR-8 ovarian,0.783 µM
same,TGI,OVCAR-8 ovarian,30.8 µM
same,GI50,COLO 205 colon,> 100 µM
same,TGI,COLO 205 colon,> 100 µM
same,GI50,NCI-H460 NSCLC,0.204 µM
same,TGI,NCI-H460 NSCLC,> 100 µM
same,GI50,PC-3 prostate,> 100 µM
same,TGI,PC-3 prostate,> 100 µM
same,GI50,NCI-H322M lung,> 100 µM
same,TGI,NCI-H322M lung,> 100 µM
